Laboratory results as given in BigSolDB 2.1.

COc1cc(CO)ccc1O
solubility (mole fraction)
Settings	in acetonitrile	in ethanol	in ethyl acetate	in isopentanol	in isopropanol	in n-butanol	in n-butyl acetate	in n-pentanol
293.15 K	0.0172	0.0442	0.0176	0.0225	0.0284	0.0234	0.0098	0.0214
303.15 K	0.0262	0.0627	0.0296	0.0302	0.0418	0.0393	0.0177	0.0338
313.15 K	0.0415	0.0936	0.0393	0.0447	0.0578	0.0538	0.027	0.049
323.15 K	0.0713	0.142	0.0682	0.0652	0.0957	0.0902	0.0428	0.0728
333.15 K	0.127	0.205	0.1	0.0912	0.149	0.134	0.0653	0.102
343.15 K	0.22	0.317	0.163	0.14	0.237	0.182	0.107	0.155
